Results published in patent publication US20240239790A1, “7-Morpholino-1,6-Naphthyridin-5-yl Derivatives and Pharmaceutical Compositions Thereof Useful as DNA-PK Inhibitor” (adMare Therapeutics Society, priority 2021, published 2024).
Read-outs that look alike come from different tables or passages of the source.

What was measured:
[1] = Microsomal Stability Assay, mouse liver microsomes; assay type: in vitro ADME; details: for microsomal CLint at 0.1 uM: male, CD-1, pH 7.4
Method: (§1) Samples were then mixed and centrifuged. Supernatants were used for HPLC-MS/MS analysis. […] Peak areas corresponding to the test compound were recorded.

[2] = Microsomal Stability Assay, human liver microsomes; assay type: in vitro ADME; details: for microsomal CLint at 0.1 uM: both sexes, pH 7.4
Method: as §1

[3] = biological target: T1, DNA-PK phosphorylation at Serine 2056 (Homo sapiens, UniProt P78527); assay: Cellular Assay for Inhibition of DNA-PK Phosphorylation at Serine 2056 in FaDu cells (sandwich ELISA, neocarzinostatin); assay type: cell-based; details: pSer2056 DNA-PK
T1 construct: FaDu cells were purchased from ATCC; host or cells: FaDu
How it was run: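 pSer2056 and total DNA-PK were measured by sandwich ELISA in BCA-normalised FaDu lysates. Cells had 1 h compound exposure (0.3% DMSO), then 2 h with 1 μg/mL final neocarzinostatin. IC50 was fitted (variable slope) to % inhibition scaled against NCS-stimulated and DMSO-only controls.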

DNA-PK = biological target: T2, DNA-PK (Homo sapiens, UniProt P78527); assay: DNA-PK Assay for Biochemical Enzymatic Inhibition (ADP Glo Kinase assay); details: DNA-PK enzyme
T2 construct: purchased Invitrogen PR9107A
How it was run: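 Human DNA-PK (25 ng) preincubated 15 min with compounds (ten three-fold dilutions) in HEPES pH 7.5, MgCl2, KCl, calf thymus DNA buffer, then substrate 434.4 μM and ATP 64.4 μM (final) for 60 min at room temperature. ADP-Glo luminescence; percent inhibition fitted by four-parameter regression for IC50.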

[4] = system: pDNA-PK induction in HCT116 tumour spheroids; assay: Multicellular tumour spheroid + radiation, pDNA-PK (ser2056) inhibition, immunohistochemical endpoint, HCT116; assay type: cell-based; details: Homo sapiens, 20 Gy, 20% O2
How it was run: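 HCT116 spheroids (~0.5 mm) in MEM/10% FBS, 20% O2, 37° C., pre-incubated 1 h with compound (10 or 5 μM down to 3.5 nM), irradiated 20 Gy, then 2 h further with compound. Cryosections immunostained for pDNA-PK ser2056; EC50 is concentration halving radiation-induced pDNA-PK.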

[5] = Hepatocyte Stability Assay, mouse hepatocytes; assay type: in vitro ADME
Method: (§2) Cryopreserved mouse hepatocytes were obtained from a pool of 10 or more male CD-1 mice. Cryopreserved human hepatocytes were obtained from a pool of 10 or more donors of mixed gender. Final hepatocyte density was 0.7 million viable cells per mL and test compound concentration was 1 uM with a maximum of 0.01% DMSO. Cryopreserved hepatocytes were thawed, washed, and resuspended in Krebs-Heinslet buffer (pH 7.3). The reaction was initiated by adding the test compound into cell suspension and incubated for 0, […], 1, 1.5, and 2 h, respectively, at 37° C./5% C02. The reaction was stopped by adding acetonitrile into the incubation mixture. Samples were then mixed, transferred completely to another 96-well plate, and centrifuged. Supernatants were used for HPLC-MS/MS analysis. […] Peak areas corresponding to the test compound were recorded.

[6] = Hepatocyte Stability Assay, human hepatocytes; assay type: in vitro ADME
Method: as §2

[7] = mouse liver microsomes 0.1 mg/mL, 0.1 uM compound
[8] = neocarzinostatin 1 μg/mL, Table 1
[9] = HCT-116, 2 hours following radiation, Example 9 Study 2, read-out: Spheroid Cell line: HCT116 Immunohistochemical endpoint pDNA-PK inhibition EC50
[10] = HCT-116, Spheroid, Cell Line: HCT115 (so in the source), 2 hours following radiation, Example 7, read-out: EC50, Immunohistochemical endpoint, pDNA-PK inhibition
[11] = HCT-116, 2 h, spheroids, Example 8, read-out: Cell line: HCT116 Immunohistochemical endpoint pDNA-PK inhibition EC50
[12] = mouse liver microsomes, Example 11
[13] = human liver microsomes, Example 11

SMILES	microsomal CLint at 0.1 uM [1, 7] [µL/min/mg]	Microsomal Stability Mouse % rem. 60 min ([1]; mouse liver microsomes)	IC50 [3, 8] [µM]	IC50 (DNA-PK; Table 1) [µM]	EC50 [4, 9] [µM]	EC50 [4, 10] [µM]	EC50 [4, 11] [µM]	other results
CN(C)C(=O)COc1ccc(N[C@H]2CC[C@@H](Oc3nc(N4CCOCC4)cc4ncccc34)CC2)nc1 [Compound 55, N,N-dimethyl-2-((6-(((1s,4s)-4-((7-morpholino-1,6-naphthyridin-5-yl)oxy)cyclohexyl)amino)pyridin-3-yl)oxy)acetamide]	> 116	E (% remaining = 0-25%)	0.1 to 1	< 0.0005	–	–	–	microsomal CLint at 0.1 uM ([2]; human liver microsomes 0.1 mg/mL, 0.1 uM compound): > 116 µL/min/mg; Microsomal Stability Human % rem. 60 min ([2]; human liver microsomes): F (% remaining = 25-50%)
CON(C)C(=O)COc1cnc(N[C@H]2CC[C@@H](Oc3nc(N4CCOCC4)cc4ncccc34)CC2)nc1 [Compound 58, N-Methoxy-N-methyl-2-((2-(((1s,4s)-4-((7-morpholino-1,6-naphthyridin-5-yl)oxy)cyclohexyl)amino)pyrimidin-5-yl)oxy)acetamide]	> 116	E (% remaining = 0-25%)	0.1 to 1	< 0.0005	0.5 to 1	0.5 to 1	–	–
NC(=O)COc1cnc(N[C@H]2CC[C@@H](Oc3nc(N4CCOCC4)cc4ncccc34)CC2)nc1 [Compound 60, 2-((2-(((1s,4s)-4-((7-Morpholino-1,6-naphthyridin-5-yl)oxy)cyclohexyl)amino)pyrimidin-5-yl)oxy)acetamide]	> 116	F (% remaining = 25-50%)	< 0.1	< 0.0005	0.01 to 0.5	0.01 to 0.5	–	–
CONC(=O)COc1cnc(N[C@H]2CC[C@@H](Oc3nc(N4CCOCC4)cc4ncccc34)CC2)nc1 [Compound 72, N-Methoxy-2-((2-(((1s,4s)-4-((7-morpholino-1,6-naphthyridin-5-yl)oxy)cyclohexyl)amino)pyrimidin-5-yl)oxy)acetamide]	> 116	E (% remaining = 0-25%)	< 0.1	0.001 to 0.01	0.5 to 1	0.5 to 1	–	–
O=C(COc1cnc(N[C@H]2CC[C@@H](Oc3nc(N4CCOCC4)cc4ncccc34)CC2)nc1)N1CC(F)C1 [Compound 76, 1-(3-Fluoroazetidin-1-yl)-2-((2-(((1s,4s)-4-((7-morpholino-1,6-naphthyridin-5-yl)oxy)cyclohexyl)amino)pyrimidin-5-yl)oxy)ethan-1-one]	–	–	0.1 to 1	< 0.0005	1 to 10	–	–	hepatocyte CLint at 1 uM ([5]; male, CD-1, cryopreserved hepatocytes, pH 7.3, mouse hepatocytes 0.7 million cells per mL, 1 uM compound): > 8.2 µL/min/1e6 cells; Hepatocyte Stability Mouse % rem. 120 min ([5]; mouse hepatocytes, 120 min): F (% remaining = 25-50%); hepatocyte CLint at 1 uM ([6]; both sexes, cryopreserved hepatocytes, pH 7.3, human hepatocytes 0.7 million cells per mL, 1 uM compound): < 8.2 µL/min/1e6 cells; Hepatocyte Stability Human % rem. 120 min ([6]; human hepatocytes, 120 min): G (% remaining = 50-75%)
CN(C)C(=O)Cn1cccc1C(=O)N[C@H]1CC[C@@H](Oc2nc(N3CCOCC3)cc3ncccc23)CC1 [Compound 146, 1-(2-(dimethylamino)-2-oxoethyl)-N-((1s,4s)-4-((7-morpholino-1,6-naphthyridin-5-yl)oxy)cyclohexyl)-1H-pyrrole-2-carboxamide]	> 116	F (% remaining = 25-50%)	1 to 10	0.001 to 0.01	1 to 10	1 to 10	–	–
O=C(Nc1ccccc1)N[C@H]1CC[C@@H](Oc2nc(N3CCOCC3)cc3ncccc23)CC1 [Compound 150, 1-((1s,4s)-4-((7-Morpholino-1,6-naphthyridin-5-yl)oxy)cyclohexyl)-3-phenylurea]	> 116	E (% remaining = 0-25%)	0.1 to 1	0.0005 to 0.001	0.5 to 1	0.5 to 1	0.5 to 1	–
NC(=O)c1cnc2cc(N3CCOCC3)nc(O[C@H]3CC[C@@H](n4ccnc4)CC3)c2c1 [Compound 166, 5-(((1s,4s)-4-(1H-imidazol-1-yl)cyclohexyl)oxy)-7-morpholino-1,6-naphthyridine-3-carboxamide]	> 116	E (% remaining = 0-25%)	10 to 30	0.001 to 0.01	10 to 100	10 to 100	10 to 100	–
CC(=O)NC(=O)c1cnc2cc(N3CCOCC3)nc(O[C@H]3CC[C@@H](n4ccnc4)CC3)c2c1 [Compound 167, 5-(((1s,4s)-4-(1H-imidazol-1-yl)cyclohexyl)oxy)-N-acetyl-7-morpholino-1,6-naphthyridine-3-carboxamide]	> 116	E (% remaining = 0-25%)	0.1 to 1	0.001 to 0.01	10 to 100	10 to 100	10 to 100	–
CONC(=O)c1cnc2cc(N3CCOCC3)nc(O[C@H]3CC[C@@H](n4ccnc4)CC3)c2c1 [Compound 171, 5-(((1s,4s)-4-(1H-imidazol-1-yl)cyclohexyl)oxy)-N-methoxy-7-morpholino-1,6-naphthyridine-3-carboxamide]	< 116	G (% remaining = 50-75%)	1 to 10	0.001 to 0.01	1 to 10	1 to 10	1 to 10	–
CN(C)C(=O)COc1cnc(N[C@H]2CC[C@@H](Oc3nc(N4CCOCC4)cc4ncc(NS(C)(=O)=O)cc34)CC2)nc1 [LFA012, 2-[2-[[4-[[3-(Methanesulfonamido)-7-morpholino-1,6-naphthyridin-5-yl]oxy]cyclohexyl]amino]pyrimidin-5-yl]oxy-N,N′-dimethyl-acetamide]	–	–	–	–	–	–	–	Microsomal Stability Mouse % rem. 60 min [1, 12]: H (% remaining = 75-100%); Microsomal Stability Mouse Clint [1, 12]: A (Clint < 116 uL/min/mg); Microsomal Stability Human % rem. 60 min [2, 13]: H (% remaining = 75-100%); Microsomal Stability Human Clint [2, 13]: A (Clint < 116 uL/min/mg); IC50 ([3]; Table 2): 0.1 to 1 µM; IC50 (DNA-PK; Table 2): < 0.0005 µM
CN(C)C(=O)COc1cnc(N[C@H]2CC[C@@H](Oc3nc(N4CCOCC4)cc4ncc(N)cc34)CC2)nc1 [LFA111, 2-[2-[[4-[(3-Amino-7-morpholino-1,6-naphthyridin-5-yl)oxy]cyclohexyl]amino]pyrimidin-5-yl]oxy-N,N-dimethyl-acetamide]	–	–	–	–	–	–	–	microsomal CLint at 0.1 uM [1, 12]: < 116 µL/min/mg; Microsomal Stability Mouse % rem. 60 min [1, 12]: F (% remaining = 25-50%); microsomal CLint at 0.1 uM [2, 13]: < 116 µL/min/mg; Microsomal Stability Human % rem. 60 min [2, 13]: G (% remaining = 50-75%); IC50 ([3]; Table 2): 0.1 to 1 µM; IC50 (DNA-PK; Table 2): 0.0005 to 0.001 µM
